Our source for the IC50 values is patent US11926629B1, “Pyrido[3′,4′:4,5]pyrrolo[2,3-c]isoquinoline compounds as CK2 inhibitors” (KING FAISAL UNIVERSITY, priority 2023, dated 2024).

One assay concerns H1299 (lung). Put plainly: In vitro cytotoxic activity (MTT) assay, H1299. It counts as cell-based. To be noted: Homo sapiens, NCI-H1299; H1299 (lung) cells, exposed for 96 hours; read-out: IC50, 50% inhibition of cell proliferation. The procedure:
(§1) Compounds 1-15 were screened for their in vitro cytotoxic activity utilizing a 3-(4,5-dimethyl-thiazol-2-yl)-2,5-diphenyltetrazolium bromide (MTT) assay against selected cancer human cell lines consisting of PC3 (prostate). HCT116 (colon), A375 (melanoma), H1299 (lung). MIAPaCa-2 (pancreas), HL60 (leukemia). MCF7 (breast), MDA-MB-231 (breast) (T. Mosmann, J. Immunol. Meth., 1983, 65, 55-63). The cells were cultured at 37° C. in RMPI1640 medium supplemented with 10% fetal bovine serum, 50 IU/mL penicillin, and 50 μg/mL streptomycin in a 5% CO2 incubator. All cells were sub-cultured 3 times/week by trypsinisation. Viable cells were seeded and allowed to adhere for 12 h before a test drug was added in 96-well plates at an initial density of 1.0×10^5 cells/mL. Tumour cell lines were separately exposed to various concentrations of the tested compounds followed by incubation at a temperature of 37° C. during 96 h inside a medium of fresh RMPI 1640. Cells were subsequently incubated at 37° C. using MTT at 0.5 mg/mL during 4 h. After removal of supernatant, formazan crystals were dissolved in isopropanol and the optical density was measured at 570 nm. CX-4945 was used as a positive control.

The test system of a further assay is HL60 (leukemia). The experiment in a line: In vitro cytotoxic activity (MTT) assay, HL60. It counts as cell-based. To be noted: Homo sapiens, HL-60; HL60 (leukemia) cells, exposed for 96 hours; read-out: IC50, 50% inhibition of cell proliferation. As for the experimental part:
as §1

Another assay has as its system MDA-MB-231 (breast). The experiment in a line: In vitro cytotoxic activity (MTT) assay, MDA-MB-231. It counts as cell-based. To be noted: Homo sapiens; MDA-MB-231 (breast) cells, exposed for 96 hours; read-out: IC50, 50% inhibition of cell proliferation. As for the experimental part:
as §1

Another assay concerns HCT116 (colon). Put plainly: In vitro cytotoxic activity (MTT) assay, HCT116. It counts as cell-based. Conditions: Homo sapiens, HCT-116; HCT116 (colon) cells, exposed for 96 hours; read-out: IC50, 50% inhibition of cell proliferation. As for the experimental part: as §1
Assay [1] concerns the target T1, recombinant human CK2 (RRββ-holoenzyme) (Homo sapiens, UniProt P68400).
T1 construct: purchased Millipore
The experiment in a line: CK2 Kinase Assay. It counts as biochemical. Conditions: final ATP concentration 15 μM, 10 min at 30° C.; read-out: IC50 protein kinase CK2 activity. As for the experimental part: CK2 Kinase Assay was conducted using the protocol as described in Pierre F. et al; J. Med. Chem. 2011, 54, 635-654. The tested compounds in aqueous solution were added at a volume of 10 μL to a reaction mixture comprising 10 μL of assay dilution buffer (ADB; 20 mM MOPS, pH 7.2, 25 mM β-glycerol phosphate, 5 mM EGTA, 1 mM sodium orthovanadate, and 1 mM dithiothreitol), 10 μL of substrate peptide (RRRDDDSDDD, dissolved in ADB at a concentration of 1 mM), 10 μL of recombinant human CK2 (RRββ-holoenzyme, 25 ng dissolved in ADB; Millipore). Reactions were initiated by the addition of 10 μL of ATP solution (90% 75 mMMgCl2, 75 μM ATP (final ATP concentration:15 μM) dissolved in ADB; 10% [γ-33P] ATP (stock 1 mCi/100 μL; 3000 Ci/mmol (Perkin-Elmer) and maintained for 10 min at 30° C. The reactions were quenched with 100 μL of 0.75% phosphoric acid and then transferred to and filtered through a phosphor cellulose filter plate (Millipore). After washing each well five times with 0.75% phosphoric acid, the plate was dried under vacuum for 5 min and, following the addition of 15 μL of scintillation fluid to each well, the residual radioactivity was measured using a Wallac luminescence counter. The IC50 values were derived from eight concentrations of test inhibitors.

The next assay deals with A375 (melanoma). The experiment in a line: In vitro cytotoxic activity (MTT) assay, A375. It counts as cell-based. To be noted: Homo sapiens, A-375; A375 (melanoma) cells, exposed for 96 hours; read-out: IC50, 50% inhibition of cell proliferation. As for the experimental part: as §1
Another assay deals with PC3 (prostate). The experiment in a line: In vitro cytotoxic activity (MTT) assay, PC3. It counts as cell-based. Conditions: Homo sapiens, Prostate cell; PC3 (prostate) cells, exposed for 96 hours; read-out: IC50, 50% inhibition of cell proliferation. The procedure: as §1
For the next assay, the system named is MCF7 (breast). Put plainly: In vitro cytotoxic activity (MTT) assay, MCF7. Conditions: Homo sapiens; MCF7 (breast) cells, exposed for 96 hours; read-out: IC50, 50% inhibition of cell proliferation. It counts as cell-based. The procedure: as §1
The test system of another assay is MIAPaCa-2 (pancreas). Put plainly: In vitro cytotoxic activity (MTT) assay, MIAPaCa-2. It counts as cell-based. Conditions: Homo sapiens, MIA PaCa-2; MIAPaCa-2 (pancreas) cells, exposed for 96 hours; read-out: IC50, 50% inhibition of cell proliferation. The procedure: as §1

T1 sequence (P68400 whole entry): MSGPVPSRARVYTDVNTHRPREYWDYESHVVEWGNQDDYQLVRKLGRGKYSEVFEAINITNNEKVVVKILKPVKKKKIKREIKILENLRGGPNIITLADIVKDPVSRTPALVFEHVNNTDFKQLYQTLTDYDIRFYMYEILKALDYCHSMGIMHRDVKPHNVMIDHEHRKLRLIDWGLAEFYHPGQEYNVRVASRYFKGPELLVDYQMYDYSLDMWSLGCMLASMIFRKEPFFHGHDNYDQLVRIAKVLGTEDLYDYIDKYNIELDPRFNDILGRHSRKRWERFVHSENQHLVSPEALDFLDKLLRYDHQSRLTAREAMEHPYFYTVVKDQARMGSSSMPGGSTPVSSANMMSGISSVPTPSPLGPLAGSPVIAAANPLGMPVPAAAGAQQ
T1 sequence (P67870 whole entry partner): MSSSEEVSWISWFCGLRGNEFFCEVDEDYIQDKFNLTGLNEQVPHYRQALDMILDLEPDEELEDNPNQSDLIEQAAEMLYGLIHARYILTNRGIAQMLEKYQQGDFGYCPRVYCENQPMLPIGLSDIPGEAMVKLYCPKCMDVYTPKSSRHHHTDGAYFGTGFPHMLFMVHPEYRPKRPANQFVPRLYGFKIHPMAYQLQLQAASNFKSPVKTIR

For the compound `O=C(O)c1ccc2c(c1)c(Nc1cccc(Cl)c1)nc1[nH]c3ccncc3c12` [Compound 1, 5-((3-chlorophenyl)amino)-7H-pyrido[3′,4′:4,5]pyrrolo[2,3-c]isoquinoline-3-carboxylic acid], the IC50 is 900 nM in the assay with H1299 (lung); 4300 nM in the assay with HL60 (leukemia); 4400 nM with MDA-MB-231 (breast); 2000 nM in the assay with HCT116 (colon); 86 nM in [1]; 3300 nM with A375 (melanoma). Also, the IC50 in the assay with PC3 (prostate) was determined as 1100 nM; in the assay with MCF7 (breast) it was 3600 nM; with MIAPaCa-2 (pancreas) it was 1200 nM.
